Assays:
[1] = molecular target: Pim-1 (Homo sapiens (Human), UniProt P11309); experiment: Pim-1 kinase assay (Pim enzyme assays, Example A); format: biochemical; details: 1 mM ATP, BAD peptide substrate; read-out: PIM1 IC50
[2] = tested on: pBAD in KMS.12.BM cells; experiment: Pim pBAD signaling assay in KMS.12.BM cells (Example B); format: cell-based; details: Homo sapiens, 2.5 h incubation, pBAD ELISA
[3] = molecular target: Pim-3 (Homo sapiens (Human), UniProt Q86V86); experiment: Pim-3 kinase assay (Pim enzyme assays, Example A); format: biochemical; details: 1 mM ATP, BAD peptide substrate; read-out: PIM3 IC50
[4] = molecular target: Pim-2 (Homo sapiens (Human), UniProt Q9P1W9); experiment: Pim-2 kinase assay (Pim enzyme assays, Example A); format: biochemical; details: 1 mM ATP, CREBtide peptide substrate; read-out: PIM2 IC50
Chain of Pim-2 (Q9P1W9 whole entry): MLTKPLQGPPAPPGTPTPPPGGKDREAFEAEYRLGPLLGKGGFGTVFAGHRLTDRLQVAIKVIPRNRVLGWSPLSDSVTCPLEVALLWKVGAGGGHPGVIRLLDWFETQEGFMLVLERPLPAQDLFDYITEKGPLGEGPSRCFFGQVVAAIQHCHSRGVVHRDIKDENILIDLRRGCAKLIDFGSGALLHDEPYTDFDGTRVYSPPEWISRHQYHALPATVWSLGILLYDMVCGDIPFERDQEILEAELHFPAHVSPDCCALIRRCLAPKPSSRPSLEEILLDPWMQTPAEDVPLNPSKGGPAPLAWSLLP

Chain of Pim-1 (P11309 whole entry): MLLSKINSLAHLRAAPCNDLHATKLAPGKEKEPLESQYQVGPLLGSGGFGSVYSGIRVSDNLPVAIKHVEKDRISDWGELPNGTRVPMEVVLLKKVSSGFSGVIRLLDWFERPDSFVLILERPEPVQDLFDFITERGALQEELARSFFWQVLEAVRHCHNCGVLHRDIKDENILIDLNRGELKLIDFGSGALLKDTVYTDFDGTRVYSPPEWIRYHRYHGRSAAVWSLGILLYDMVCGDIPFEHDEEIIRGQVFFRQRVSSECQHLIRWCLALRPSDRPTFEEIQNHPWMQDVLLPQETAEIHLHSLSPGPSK

## C[C@H]1CN(c2ccncc2NC(=O)c2ccc3ccc(-c4ccc(OC5CCOCC5)nc4)cc3n2)C[C@@H](N)[C@@H]1O [Example 52, N-{4-[(3R,4R,5S)-3-Amino-4-hydroxy-5-methylpiperidin-1-yl]pyridin-3-yl}-7-[6-(tetrahydro-2H-pyran-4-yloxy)pyridin-3-yl]quinoline-2-carboxamide]
[1]
  IC50: ≤ 10 nM
[2]
  IC50: 50 to 250 nM
[3]
  IC50: ≤ 10 nM
[4]
  IC50: ≤ 100 nM

## C[C@@H]1C[C@H](N)CN(c2ccncc2NC(=O)c2ccc3ccc(N4CCC(N5CCOCC5)CC4)cc3n2)C1 [Example 27, N-{4-[(3S,5R)-3-Amino-5-methylpiperidin-1-yl]pyridin-3-yl}-7-(4-morpholin-4-ylpiperidin-1-yl)quinoline-2-carboxamide]
[1]
  IC50: ≤ 10 nM
[2]
  IC50: 50 to 250 nM
[3]
  IC50: ≤ 10 nM
[4]
  IC50: 100 to 1000 nM

## N#CC1CCN(c2cnc3ccc(C(=O)Nc4cnccc4N4C[C@@H](N)[C@H](O)[C@@H](C5CC5)C4)nc3c2)CC1 [Example 41, N-{4-[(3R,4R,5S)-3-Amino-5-cyclopropyl-4-hydroxypiperidin-1-yl]pyridin-3-yl}-7-(4-cyanopiperidin-1-yl)-1,5-naphthyridine-2-carboxamide]
[1]
  IC50: 10 to 50 nM
[2]
  IC50: 50 to 250 nM
[3]
  IC50: 10 to 50 nM
[4]
  IC50: 1000 to 10000 nM

## COc1cc(F)c(-c2cnc3ccc(C(=O)Nc4cnccc4N4C[C@@H](N)[C@H](O)[C@@H](C5CC5)C4)nc3c2)c(F)c1 [Example 35, N-{4-[(3R,4R,5S)-3-Amino-5-cyclopropyl-4-hydroxypiperidin-1-yl]pyridin-3-yl}-7-(2,6-difluoro-4-methoxyphenyl)-1,5-naphthyridine-2-carboxamide]
[1]
  IC50: ≤ 10 nM
[2]
  IC50: ≤ 50 nM
[3]
  IC50: ≤ 10 nM
[4]
  IC50: ≤ 100 nM

## COc1ccc(-c2cnc3ccc(C(=O)Nc4cnccc4N4C[C@@H](N)[C@H](O)[C@@H](C5CC5)C4)nc3c2)cn1 [Example 36, N-{4-[(3R,4R,5S)-3-Amino-5-cyclopropyl-4-hydroxypiperidin-1-yl]pyridin-3-yl}-7-(6-methoxypyridin-3-yl)-1,5-naphthyridine-2-carboxamide]
[1]
  IC50: ≤ 10 nM
[2]
  IC50: ≤ 50 nM
[3]
  IC50: ≤ 10 nM
[4]
  IC50: ≤ 100 nM

## COC1CCN(c2ccc3ccc(C(=O)Nc4cnccc4N4C[C@@H](N)[C@H](O)[C@@H](C)C4)nc3c2)CC1 [Example 24, N-{4-[(3R,4R,5S)-3-Amino-4-hydroxy-5-methylpiperidin-1-yl]pyridin-3-yl}-7-(4-methoxypiperidin-1-yl)quinoline-2-carboxamide]
[1]
  IC50: ≤ 10 nM
[2]
  IC50: ≤ 50 nM
[3]
  IC50: ≤ 10 nM
[4]
  IC50: ≤ 100 nM

## CCn1cc(-c2ccc3ccc(C(=O)Nc4cnccc4N4C[C@@H](N)[C@H](O)[C@@H](C)C4)nc3c2)cn1 [Example 44, N-{4-[(3R,4R,5S)-3-Amino-4-hydroxy-5-methylpiperidin-1-yl]pyridin-3-yl}-7-(1-ethyl-1H-pyrazol-4-yl)quinoline-2-carboxamide]
[1]
  IC50: ≤ 10 nM
[2]
  IC50: ≤ 50 nM
[3]
  IC50: ≤ 10 nM
[4]
  IC50: ≤ 100 nM

## C[C@@H]1C[C@H](N)CN(c2ccncc2NC(=O)c2ccc3ccc(N4CCC5(CCOCC5)CC4)cc3n2)C1 [Example 15, N-{4-[(3S,5R)-3-Amino-5-methylpiperidin-1-yl]pyridin-3-yl}-7-(3-oxa-9-azaspiro[5.5]undec-9-yl)quinoline-2-carboxamide]
[1]
  IC50: ≤ 10 nM
[2]
  IC50: 50 to 250 nM
[3]
  IC50: ≤ 10 nM
[4]
  IC50: 100 to 1000 nM

## COc1ccc(-c2cnc3ccc(C(=O)Nc4cnccc4N4C[C@@H](N)[C@H](O)[C@@H](C)C4)nc3c2)cn1 [Example 7, N-{4-[(3R,4R,5S)-3-Amino-4-hydroxy-5-methylpiperidin-1-yl]pyridin-3-yl}-7-(6-methoxypyridin-3-yl)-1,5-naphthyridine-2-carboxamide]
[1]
  IC50: ≤ 10 nM
[2]
  IC50: ≤ 50 nM
[3]
  IC50: ≤ 10 nM
[4]
  IC50: ≤ 100 nM

## CCn1cc(-c2cnc3ccc(C(=O)Nc4cnccc4N4C[C@H](C)C[C@H](N)C4)nc3c2)cn1 [Example 5, N-{4-[(3S,5R)-3-Amino-5-methylpiperidin-1-yl]pyridin-3-yl}-7-(1-ethyl-1H-pyrazol-4-yl)-1,5-naphthyridine-2-carboxamide]
[1]
  IC50: ≤ 10 nM
[2]
  IC50: ≤ 50 nM
[3]
  IC50: ≤ 10 nM
[4]
  IC50: 100 to 1000 nM

## C[C@@H]1C[C@H](N)CN(c2ccncc2NC(=O)c2ccc3ccc(N4CCC4)cc3n2)C1 [Example 34, N-{4-[(3S,5R)-3-Amino-5-methylpiperidin-1-yl]pyridin-3-yl}-7-azetidin-1-ylquinoline-2-carboxamide]
[1]
  IC50: ≤ 10 nM
[2]
  IC50: 50 to 250 nM
[3]
  IC50: ≤ 10 nM
[4]
  IC50: ≤ 100 nM

## N#Cc1ccccc1-c1cnc2ccc(C(=O)Nc3cnccc3N3C[C@@H](N)C[C@@H](C(F)(F)F)C3)nc2c1 [Example 51, N-{4-[(3S,5R)-3-Amino-5-(trifluoromethyl)piperidin-1-yl]pyridin-3-yl}-7-(2-cyanophenyl)-1,5-naphthyridine-2-carboxamide]
[1]
  IC50: ≤ 10 nM
[2]
  IC50: ≤ 50 nM
[3]
  IC50: ≤ 10 nM
[4]
  IC50: ≤ 100 nM

## C[C@H]1CN(c2ccncc2NC(=O)c2ccc3ccc(-c4ccc(N5CCOCC5)nc4)cc3n2)C[C@@H](N)[C@@H]1O [Example 46, N-{4-[(3R,4R,5S)-3-Amino-4-hydroxy-5-methylpiperidin-1-yl]pyridin-3-yl}-7-(6-morpholin-4-ylpyridin-3-yl)quinoline-2-carboxamide]
[1]
  IC50: ≤ 10 nM
[2]
  IC50: ≤ 50 nM
[3]
  IC50: ≤ 10 nM
[4]
  IC50: ≤ 100 nM

## CCN1CCN(c2ccc3ccc(C(=O)Nc4cnccc4N4C[C@@H](N)[C@H](O)[C@@H](C)C4)nc3c2)CC1=O [Example 22, N-{4-[(3R,4R,5S)-3-Amino-4-hydroxy-5-methylpiperidin-1-yl]pyridin-3-yl}-7-(4-ethyl-3-oxopiperazin-1-yl)quinoline-2-carboxamide]
[1]
  IC50: ≤ 10 nM
[2]
  IC50: ≤ 50 nM
[3]
  IC50: ≤ 10 nM
[4]
  IC50: ≤ 100 nM

From patent publication US9580418B2, “Bicyclic aromatic carboxamide compounds useful as Pim kinase inhibitors” (Incyte Corporation, priority 2014, dated 2017)
